From ChEMBL document CHEMBL1914426, “Phospshoinositide 3-kinase (PI3K)/mammalian target of rapamycin (mTOR) dual inhibitors: discovery and structure-activity relationships of a series of quinoline and quinoxaline derivatives” (J Med Chem, 2011)

Assays:
[1] = molecular target: T1, Phosphatidylinositol 4,5-bisphosphate 3-kinase catalytic subunit alpha isoform (Homo sapiens, UniProt P42336)
[2] = molecular target: T1, Phosphatidylinositol 4,5-bisphosphate 3-kinase catalytic subunit alpha isoform; remark: listed apart in the source
in vitro [3] = details: human, liver microsomes
Description: Clearance in human liver microsomes assessed as compound remaining at 1 uM after 30 mins

[4] = molecular target: Phosphatidylinositol 4,5-bisphosphate 3-kinase catalytic subunit beta isoform (Homo sapiens, UniProt P42338)
Phosphatidylinositol 4,5-bisphosphate 3-kinase catalytic subunit beta isoform, sequence (P42338 whole entry, canonical isoform): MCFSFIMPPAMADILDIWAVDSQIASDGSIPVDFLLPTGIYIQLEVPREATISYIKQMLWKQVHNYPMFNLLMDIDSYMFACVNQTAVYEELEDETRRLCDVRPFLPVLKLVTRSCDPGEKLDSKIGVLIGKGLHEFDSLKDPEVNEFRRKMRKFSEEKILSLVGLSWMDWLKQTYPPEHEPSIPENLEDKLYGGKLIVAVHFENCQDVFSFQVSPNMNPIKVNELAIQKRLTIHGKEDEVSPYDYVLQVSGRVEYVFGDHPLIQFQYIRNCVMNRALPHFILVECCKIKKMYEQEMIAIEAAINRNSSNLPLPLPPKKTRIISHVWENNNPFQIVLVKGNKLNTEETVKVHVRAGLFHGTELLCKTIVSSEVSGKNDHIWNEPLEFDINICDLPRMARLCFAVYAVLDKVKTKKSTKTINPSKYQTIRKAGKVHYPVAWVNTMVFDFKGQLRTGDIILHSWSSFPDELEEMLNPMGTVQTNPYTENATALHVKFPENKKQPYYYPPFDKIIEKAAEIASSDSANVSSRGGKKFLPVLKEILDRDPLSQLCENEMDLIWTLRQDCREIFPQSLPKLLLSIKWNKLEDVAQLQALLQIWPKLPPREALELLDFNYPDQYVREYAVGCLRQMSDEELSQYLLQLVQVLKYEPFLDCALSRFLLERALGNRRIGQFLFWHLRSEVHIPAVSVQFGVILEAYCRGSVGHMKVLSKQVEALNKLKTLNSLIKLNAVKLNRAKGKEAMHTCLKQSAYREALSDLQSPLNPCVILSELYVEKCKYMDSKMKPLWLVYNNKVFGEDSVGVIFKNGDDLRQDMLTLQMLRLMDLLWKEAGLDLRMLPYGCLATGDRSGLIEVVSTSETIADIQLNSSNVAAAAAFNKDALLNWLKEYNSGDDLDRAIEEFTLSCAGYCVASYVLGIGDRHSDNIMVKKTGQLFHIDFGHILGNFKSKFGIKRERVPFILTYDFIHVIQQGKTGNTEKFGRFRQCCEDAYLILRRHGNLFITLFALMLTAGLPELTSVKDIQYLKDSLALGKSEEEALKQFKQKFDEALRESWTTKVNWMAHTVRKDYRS

[5] = molecular target: Phosphatidylinositol 4,5-bisphosphate 3-kinase catalytic subunit gamma isoform (Homo sapiens, UniProt P48736); design: species or system Sf9
Phosphatidylinositol 4,5-bisphosphate 3-kinase catalytic subunit gamma isoform, sequence (P48736 whole entry, canonical isoform): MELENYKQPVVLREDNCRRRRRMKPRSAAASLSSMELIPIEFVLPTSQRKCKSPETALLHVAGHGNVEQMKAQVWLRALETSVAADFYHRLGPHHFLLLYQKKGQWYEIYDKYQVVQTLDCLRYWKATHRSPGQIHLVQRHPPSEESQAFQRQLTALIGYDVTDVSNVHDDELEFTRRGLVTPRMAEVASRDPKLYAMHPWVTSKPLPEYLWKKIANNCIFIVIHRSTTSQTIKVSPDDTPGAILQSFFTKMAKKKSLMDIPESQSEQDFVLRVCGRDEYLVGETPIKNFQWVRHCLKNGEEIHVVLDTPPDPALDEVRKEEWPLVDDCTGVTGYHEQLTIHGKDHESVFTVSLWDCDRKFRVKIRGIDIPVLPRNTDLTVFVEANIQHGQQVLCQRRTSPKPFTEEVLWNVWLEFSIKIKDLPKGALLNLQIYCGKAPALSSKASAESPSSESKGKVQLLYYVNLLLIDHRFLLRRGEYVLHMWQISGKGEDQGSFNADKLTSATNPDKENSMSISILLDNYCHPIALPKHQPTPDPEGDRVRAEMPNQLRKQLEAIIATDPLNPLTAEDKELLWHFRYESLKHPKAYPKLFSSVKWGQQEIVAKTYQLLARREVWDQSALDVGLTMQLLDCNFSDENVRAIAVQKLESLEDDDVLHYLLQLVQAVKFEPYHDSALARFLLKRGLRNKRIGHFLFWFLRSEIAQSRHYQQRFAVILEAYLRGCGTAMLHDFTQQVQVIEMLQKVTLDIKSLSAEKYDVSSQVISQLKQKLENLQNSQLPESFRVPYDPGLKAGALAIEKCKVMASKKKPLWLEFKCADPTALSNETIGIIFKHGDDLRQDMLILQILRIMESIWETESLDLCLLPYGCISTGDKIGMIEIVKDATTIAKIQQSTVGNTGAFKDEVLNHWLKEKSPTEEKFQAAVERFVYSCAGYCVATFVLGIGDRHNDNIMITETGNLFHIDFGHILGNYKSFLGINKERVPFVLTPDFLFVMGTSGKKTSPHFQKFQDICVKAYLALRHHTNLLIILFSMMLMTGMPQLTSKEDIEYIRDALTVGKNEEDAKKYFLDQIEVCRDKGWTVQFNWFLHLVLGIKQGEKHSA

Rattus norvegicus = species on record: Rattus norvegicus; details: in vivo, iv, 1 mg/kg
Description: Hepatic blood flow in Sprague-Dawley rat 1 mg/kg, iv

[6] = molecular target: T2, Phosphatidylinositol 4,5-bisphosphate 3-kinase catalytic subunit delta isoform (Homo sapiens, UniProt O00329)
T2 sequence (O00329 whole entry): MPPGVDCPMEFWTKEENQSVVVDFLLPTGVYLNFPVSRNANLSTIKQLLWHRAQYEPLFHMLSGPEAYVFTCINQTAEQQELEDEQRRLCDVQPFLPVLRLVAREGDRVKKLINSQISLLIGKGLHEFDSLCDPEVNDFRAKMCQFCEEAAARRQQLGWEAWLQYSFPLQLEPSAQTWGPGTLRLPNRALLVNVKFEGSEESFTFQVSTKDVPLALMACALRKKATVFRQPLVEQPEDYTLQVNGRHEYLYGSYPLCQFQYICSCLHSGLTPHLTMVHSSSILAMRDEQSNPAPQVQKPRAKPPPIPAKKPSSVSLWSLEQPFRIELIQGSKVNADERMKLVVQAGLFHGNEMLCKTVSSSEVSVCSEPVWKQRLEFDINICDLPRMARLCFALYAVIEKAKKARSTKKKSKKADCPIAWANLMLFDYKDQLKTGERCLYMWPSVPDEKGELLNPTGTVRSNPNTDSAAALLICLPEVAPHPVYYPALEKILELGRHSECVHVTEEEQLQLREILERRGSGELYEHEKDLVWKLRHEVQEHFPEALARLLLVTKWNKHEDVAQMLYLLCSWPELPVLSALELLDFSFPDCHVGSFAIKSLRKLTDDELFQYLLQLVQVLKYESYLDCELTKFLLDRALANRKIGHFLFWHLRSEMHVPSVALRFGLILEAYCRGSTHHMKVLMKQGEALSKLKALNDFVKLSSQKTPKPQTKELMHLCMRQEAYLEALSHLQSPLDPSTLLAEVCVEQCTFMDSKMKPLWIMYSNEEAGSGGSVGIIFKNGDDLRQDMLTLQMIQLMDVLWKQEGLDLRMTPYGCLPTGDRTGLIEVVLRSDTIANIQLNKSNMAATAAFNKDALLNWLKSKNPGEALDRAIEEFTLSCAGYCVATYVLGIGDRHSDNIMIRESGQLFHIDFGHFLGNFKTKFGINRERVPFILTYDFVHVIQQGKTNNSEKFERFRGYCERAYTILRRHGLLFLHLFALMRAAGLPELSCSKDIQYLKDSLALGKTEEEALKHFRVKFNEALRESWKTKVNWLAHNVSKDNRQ

in vitro [7] = details: rat, liver microsomes
Description: Clearance in rat liver microsomes assessed as compound remaining at 1 uM after 30 mins

T1 sequence (P42336 whole entry, canonical isoform): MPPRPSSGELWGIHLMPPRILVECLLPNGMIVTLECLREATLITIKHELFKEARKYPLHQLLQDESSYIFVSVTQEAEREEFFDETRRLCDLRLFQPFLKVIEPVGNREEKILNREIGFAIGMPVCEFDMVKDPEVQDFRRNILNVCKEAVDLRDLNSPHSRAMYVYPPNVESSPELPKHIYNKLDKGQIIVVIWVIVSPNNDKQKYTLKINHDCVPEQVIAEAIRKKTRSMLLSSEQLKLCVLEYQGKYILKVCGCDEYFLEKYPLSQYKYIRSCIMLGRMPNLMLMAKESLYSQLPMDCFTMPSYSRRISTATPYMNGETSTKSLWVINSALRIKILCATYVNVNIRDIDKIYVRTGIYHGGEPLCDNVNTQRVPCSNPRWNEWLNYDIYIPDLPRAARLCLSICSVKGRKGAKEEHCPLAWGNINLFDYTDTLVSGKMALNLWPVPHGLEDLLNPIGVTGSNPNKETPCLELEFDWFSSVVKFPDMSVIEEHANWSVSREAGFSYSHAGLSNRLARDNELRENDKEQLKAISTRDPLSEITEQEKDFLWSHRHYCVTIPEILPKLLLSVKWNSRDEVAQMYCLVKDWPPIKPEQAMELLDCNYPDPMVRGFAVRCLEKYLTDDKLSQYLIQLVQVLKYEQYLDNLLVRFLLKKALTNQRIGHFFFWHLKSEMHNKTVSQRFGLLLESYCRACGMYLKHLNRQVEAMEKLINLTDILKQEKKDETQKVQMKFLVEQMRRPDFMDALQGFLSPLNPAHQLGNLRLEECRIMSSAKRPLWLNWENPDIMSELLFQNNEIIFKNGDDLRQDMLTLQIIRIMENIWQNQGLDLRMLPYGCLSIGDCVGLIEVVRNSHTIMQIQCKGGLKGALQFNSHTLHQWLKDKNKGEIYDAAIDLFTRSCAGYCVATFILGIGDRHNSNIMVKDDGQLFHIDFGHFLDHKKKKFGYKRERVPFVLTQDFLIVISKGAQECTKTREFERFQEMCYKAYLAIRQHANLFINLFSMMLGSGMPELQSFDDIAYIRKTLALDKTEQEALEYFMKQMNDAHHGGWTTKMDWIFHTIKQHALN

Row | Structure (SMILES) | IC50 [1] | Ki [2] | also measured
1 | O=S(=O)(Nc1cc(-c2ccc3ncccc3c2)cnc1Cl)c1ccc(F)cc1 | 0.377 µM | 0.0021 µM | –
2 | O=S(=O)(Nc1cc(-c2cc3cccnc3cn2)cnc1Cl)c1ccc(F)cc1 | > 10 µM | 0.2 µM | –
3 | O=S(=O)(Nc1cc(-c2cnc3ncccc3c2)cnc1Cl)c1ccc(F)cc1 | – | 0.856 µM | –
4 | O=S(=O)(Nc1cc(-c2ccc3nnccc3c2)cnc1Cl)c1ccc(F)cc1 | 1.92 µM | 0.038 µM | –
5 | COCCNc1ccnc2ccc(-c3cnc(Cl)c(NS(=O)(=O)c4ccc(F)cc4)c3)cc12 | 1.02 µM | 0.069 µM | –
6 | CN(C)c1ccnc2ccc(-c3cnc(Cl)c(NS(=O)(=O)c4ccc(F)cc4)c3)cc12 | 0.223 µM | 0.0057 µM | –
7 | O=S(=O)(Nc1cc(-c2ccc3nccc(N4CCC(O)CC4)c3c2)cnc1Cl)c1ccc(F)cc1 | 0.15 µM | 0.0009 µM | –
8 | O=S(=O)(Nc1cc(-c2ccc3nccc(N4CCN(Cc5ccccc5)CC4)c3c2)cnc1Cl)c1ccc(F)cc1 | 0.136 µM | 0.001 µM | –
9 | O=S(=O)(Nc1cc(-c2ccc3nccc(N4CCN(Cc5ccncc5)CC4)c3c2)cnc1Cl)c1ccc(F)cc1 | 0.018 µM | 0.0009 µM | microsomal CLint at 0.5 h, 1 µM (in vitro [3]): 247 µL/min/mg; IC50 [4]: 0.015 µM; IC50 [5]: 0.0065 µM; QH (Rattus norvegicus): 0.6%; IC50 [6]: 0.006 µM; IC50 [2]: 0.0046 µM; microsomal CLint at 0.5 h, 1 µM (in vitro [7]): > 399 µL/min/mg
10 | O=S(=O)(Nc1cc(-c2ccc3nccc(-c4ccccc4)c3c2)cnc1Cl)c1ccc(F)cc1 | 0.127 µM | 0.0013 µM | –
